The target of experiment [1] is T1, Jak2 (Homo sapiens, UniProt O60674).
T1 construct: Cell Type: UT7 cells engineered to express the erythropoietin (EPO) receptor; endogenous in cells; host or cells: UT7 cells engineered to express the EPO receptor
The experiment can be described thus: Jak2 (PSTATS UT7) alpha screen assay: inhibition of EPO induced phosphorylation of STAT5 in UT7 cells. The class given is cell-based. To be noted: calculated from tabulated EC50 data (Jak2 / Tyk2). The procedure:
3. JAK2 (PSTATS UT7) ALPHA SCREEN ASSAY
Erythropoietin (EPO) is known to transduce its signal through EPO receptor via Jak2. Activity against Jak2 was therefore measured by determining inhibition of EPO induced phosphorylation of STATS in UT7 cells. […] Materials
Cell Type: UT7 cells engineered to express the erythropoietin (EPO) receptor; Culture Medium: Dulbecco's Modified Eagle Medium (DMEM) with 2 mM L-glutamine, 10 mM hydroxyethyl piperazineethanesulfonic acid (HEPES), 10% heat-inactivated fetal bovine serum (FBS) and Stock EPO (5000U in 250 uL, need 5U/mL, so add 250 μL to 1L of media); Assay Medium: 5% FBS ultra-low IgG and 1% Pen/Strep. Compounds were made-up in 100% dimethyl sulfoxide (DMSO).
Day One - Starve Cells: 4 Flasks for one 384 plate (spin down @1000 rpm for 10 minutes and add DMEM with no EPO).
(§1) Day Two—Compound Dilutions:
i. Manual 8-point 1:3 dilution curve: 5 mM top concentration dispensed in row A of a
Corning 96-well polypropylene plate, columns 2-12. DMSO dispensed in position A01 for low and high controls. Compounds were serially diluted 1:3 by adding 10 μL stock to 20 μL DMSO down the plate.
ii. Media dilution of compounds: Serially diluted compounds were diluted 1:50 in assay medium by adding 4 μL compound to 196 μL assay medium in a Corning 96-well polypropylene plate.
384 Alpha Screen Plate Set up: Transferred 2.5 μL/well of compound solution from last dilution plate. Replicates were vertical, so that one column of the 96-well dilution plate goes into one column on the 384-well plate twice. Plated 1×10^5 starved cells/well in 5μL. Washed cells in 10 mL Hank's balanced salt solution (HBSS) after spinning down. Counted live cells. Multiplied by dilution factor and 10,000 (constant) to get the concentration of viable cells. Multiplied by volume of cells to get the total number of live cells. Divided by 20,000,000 cells/mL to get the volume needed. Subtracted the original volume to get the volume to be added to get the final concentration of cells. Mixed in reservoir if needed, ensuring that all cell clumps are broken up (if not broken up, they were removed from the suspension). Cells were plated at 5 μL/well in gray Alpha Screen 384-well plate. Spinned the plate to bring the contents to the bottom of the wells at 400 rpm for 2 minutes. Top final compound concentration: 25 μM. Sealed with adhesive and tapped gently. Incubated cells at 37° C. for 30 minutes.
c. EPO Stimulation (p STATS)
Once cells were in incubator, immediately prepared working stock of EPO (1 nM final assay concentration). EPO stock=2860 nM of sterile filtered liquid in sodium citrate buffer (1 liter of ddH2O containing 5.9 g of sodium citrate, 5.8 g of sodium chloride and 0.06 g of citric acid). Diluted 1:22.72 by adding 4.44 stock EPO to 95.6 pi assay media, then dilute again […] depending on how much volume is needed for the assay plates. Used assay medium to bring to volume. Added 2.5 μL EPO to each well. Spinned plate at 400 rpm briefly; tap the plate gently before covering with an adhesive seal. Cells were incubated at 37° C. for 20 minutes.
Added 2.5 μL of 5X Lysis buffer to each well. Spinned plate at 400 rpm briefly. Incubated at room temperature (on orbital shaker) for 10 minutes.
e. Protein (A) Acceptor Beads Preparation: (Light sensitive)
Phosphorylated Signal Transducer and Activator of Transcription 5 (pSTAT5) was quantified using the PerkinElmer SureFire pSTATS (Tyrosine 694/699) Assay. Calculated total volume needed (wells×15 μL×30%). Divided total volume by 5 to get volume of activation buffer. Subtracted volume of activation buffer from total volume and divide by 40 to get volume of acceptor beads (add last). Total volume - acceptor bead volume - activation buffer to get volume of reaction buffer. Added 15 μL to each well and covered with foil. Shaked on orbital shaker for 2 hours at 500 rpm.
(§2) f. Streptavidin Donor Beads Preparation:
Calculated total volume needed (wells×6μL×30%). […]

For experiment [2], the target named is T2, Jak1 (Homo sapiens, UniProt P23458).
T2 construct: endogenous in cells; host or cells: TF1 cells
T2 sequence (P23458 whole entry): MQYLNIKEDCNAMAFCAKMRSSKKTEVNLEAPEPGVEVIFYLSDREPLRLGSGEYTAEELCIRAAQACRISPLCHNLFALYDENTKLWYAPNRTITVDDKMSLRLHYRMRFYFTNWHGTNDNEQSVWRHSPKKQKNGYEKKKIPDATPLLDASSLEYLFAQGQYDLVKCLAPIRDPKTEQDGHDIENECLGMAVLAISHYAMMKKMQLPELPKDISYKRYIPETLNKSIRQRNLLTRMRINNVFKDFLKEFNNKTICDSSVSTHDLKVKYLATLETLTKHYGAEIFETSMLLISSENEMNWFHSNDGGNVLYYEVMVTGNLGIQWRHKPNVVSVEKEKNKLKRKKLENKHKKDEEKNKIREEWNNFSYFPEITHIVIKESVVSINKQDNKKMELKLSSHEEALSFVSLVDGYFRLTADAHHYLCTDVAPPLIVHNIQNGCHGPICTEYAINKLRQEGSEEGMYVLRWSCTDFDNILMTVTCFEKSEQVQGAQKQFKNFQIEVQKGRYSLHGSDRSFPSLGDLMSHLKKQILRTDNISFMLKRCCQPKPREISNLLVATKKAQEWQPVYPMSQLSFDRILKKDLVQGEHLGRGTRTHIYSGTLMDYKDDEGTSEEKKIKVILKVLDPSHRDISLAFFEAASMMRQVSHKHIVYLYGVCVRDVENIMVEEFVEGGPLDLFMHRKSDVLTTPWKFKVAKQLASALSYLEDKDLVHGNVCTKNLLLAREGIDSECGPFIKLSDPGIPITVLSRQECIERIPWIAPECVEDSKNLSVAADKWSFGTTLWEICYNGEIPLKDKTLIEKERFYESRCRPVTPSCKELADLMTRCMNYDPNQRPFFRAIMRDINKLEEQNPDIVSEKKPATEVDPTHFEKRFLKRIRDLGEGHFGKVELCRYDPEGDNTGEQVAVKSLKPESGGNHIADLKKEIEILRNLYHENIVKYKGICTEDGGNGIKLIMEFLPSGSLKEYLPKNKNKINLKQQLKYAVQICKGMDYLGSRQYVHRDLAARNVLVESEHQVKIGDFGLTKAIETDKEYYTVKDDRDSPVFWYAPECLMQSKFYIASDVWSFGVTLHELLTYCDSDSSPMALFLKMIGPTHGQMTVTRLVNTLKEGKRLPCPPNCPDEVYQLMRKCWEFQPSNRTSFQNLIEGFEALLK
As to the kind of experiment: Jak1 (PSTAT3 TF1) alpha screen assay: inhibition of IL-6 induced phosphorylation of STAT3 in TF1 cells. The class given is cell-based. To be noted: calculated from tabulated EC50 data (Jak1 / Tyk2). How it is done:
2. JAK1 (PSTAT3 TF1) ALPHA SCREEN ASSAY
IL-6 is known to transduce its signal through IL-6 receptor via Jak1. Activity against Jak1 was therefore measured by determining inhibition of IL-6 induced phosphorylation of STAT3 in TF1 cells.
Cell Type: TF1 Cells; Culture Medium: RPMI 1640 Medium, 2mM L-glutamine, 10% heat- inactivated fetal bovine serum (FBS), 10 mM hydroxyethyl piperazineethanesulfonic acid (HEPES), and 2 ng/mL recombinant human interleukin-6(IL-6); Assay Medium: Dulbecco's Modified Eagle Medium (DMEM) medium with 2 mM L-glutamine, 10 mM HEPES, 100 U/mL penicillin/streptomycin, 1.5 g/L sodium bicarbonate, 4.5 g/L glucose, 1 mM sodium pyruvate, 10% heat-inactivated FBS; Compound Preparation: Compounds are dissolved in 100% dimethyl sulfoxide (DMSO).
Day One—Starve Cells: 4 Flasks for one 384 plate (spin down @1000 rpm for 10 minutes and add RPMI 1640 Medium, 2 mM L-glutamine, 10% FBS, 10 mM HEPES with no IL-6 -incubate overnight).
as §1
i. Manual 8-point 1:5 dilution curve: 5 mM top concentration dispensed in row A of a
Corning 96-well polypropylene plate, columns 2-12. DMSO dispensed in position A01 for low and high controls. Compounds were serially diluted 1:5 by adding 10 μL stock to […] DMSO down the plate.
ii. Media dilution of compounds: Serially diluted compounds were further diluted 1:12.5 in assay medium by adding 4 μL compound to 46 μL assay medium in a Corning 96-well polypropylene plate.
384 Alpha Screen Plate Set up: Transfer 2.5 μL/well of compound solution from assay media dilution plate. Replicates were vertical, one column of the 96-well dilution plate goes into one column on the 384-well plate twice. Plated 1×10^5 starved cells/well in 5 μL. Washed cells in 10 mL DMEM medium after spinning down. Brought cell pellet up in assay media. Counted live cells. Multiplied by dilution factor and 10,000 (constant) to get the concentration of viable cells. Multiplied by volume of assay media used to bring up cells to get the total number of live cells. Divided by 20,000,000 cells/mL to get the volume needed. Cells were plated at 5 μL/well in gray Alpha Screen 384-well plate. Spinned the plate to bring the contents to the bottom of the wells at 300 rpm for 60 seconds. Top final compound concentration: 25 μM. Sealed with adhesive and tapped gently. Incubated plate at 37° C. for 30 minutes. c. IL-6 Stimulation (pSTAT3)
Once cells were in incubator, immediately prepared working stock of IL-6 (100 ng/mL final concentration). IL-6 stock=10 μg/mL of IL-6 in phosphate buffered saline with 0.1% bovine serum albumin. Diluted 1:25 by adding 60 μL stock IL-6 to 1440 μL assay media. Added 2.5 μL IL-6 to each well. Spinned plate at 300 rpm briefly; tapped the plate gently before covering with an adhesive seal. Incubated plate at 37° C. for 30 minutes.
Added 2.5 μL of 5X Lysis buffer to each well. Incubated at room temperature on orbital shaker for 10 minutes.
e. Protein (A) Acceptor Beads Preparation:
Phosphorylated Signal Transducer and Activator of Transcription 3 (pSTAT3) was quantified using the PerkinElmer SureFire pSTAT3 (Tyrosine 705) Assay. Calculated total volume needed (wells×[…]×25%). Divided total volume by 5 to get volume of activation buffer. Subtracted volume of activation buffer from total volume and divide by 40 to get volume of acceptor beads (add last). Total volume−acceptor bead volume−activation buffer=volume of reaction buffer. Added 15 μL to each well and covered with foil. Shaked on orbital shaker for 2 hours at 500 rpm.
as §2
Calculated total volume needed (wells×[…]×25%). Divided total volume by 20 to get volume of donor beads (add last). Subtracted volume of donor beads from total volume to get volume of dilution buffer. Added 6 μL to each well and covered with foil. Shaked on orbital shaker overnight at 500 rpm.
Read plate on a Perkin Elmer Envision. […]

T1 sequence (O60674 whole entry): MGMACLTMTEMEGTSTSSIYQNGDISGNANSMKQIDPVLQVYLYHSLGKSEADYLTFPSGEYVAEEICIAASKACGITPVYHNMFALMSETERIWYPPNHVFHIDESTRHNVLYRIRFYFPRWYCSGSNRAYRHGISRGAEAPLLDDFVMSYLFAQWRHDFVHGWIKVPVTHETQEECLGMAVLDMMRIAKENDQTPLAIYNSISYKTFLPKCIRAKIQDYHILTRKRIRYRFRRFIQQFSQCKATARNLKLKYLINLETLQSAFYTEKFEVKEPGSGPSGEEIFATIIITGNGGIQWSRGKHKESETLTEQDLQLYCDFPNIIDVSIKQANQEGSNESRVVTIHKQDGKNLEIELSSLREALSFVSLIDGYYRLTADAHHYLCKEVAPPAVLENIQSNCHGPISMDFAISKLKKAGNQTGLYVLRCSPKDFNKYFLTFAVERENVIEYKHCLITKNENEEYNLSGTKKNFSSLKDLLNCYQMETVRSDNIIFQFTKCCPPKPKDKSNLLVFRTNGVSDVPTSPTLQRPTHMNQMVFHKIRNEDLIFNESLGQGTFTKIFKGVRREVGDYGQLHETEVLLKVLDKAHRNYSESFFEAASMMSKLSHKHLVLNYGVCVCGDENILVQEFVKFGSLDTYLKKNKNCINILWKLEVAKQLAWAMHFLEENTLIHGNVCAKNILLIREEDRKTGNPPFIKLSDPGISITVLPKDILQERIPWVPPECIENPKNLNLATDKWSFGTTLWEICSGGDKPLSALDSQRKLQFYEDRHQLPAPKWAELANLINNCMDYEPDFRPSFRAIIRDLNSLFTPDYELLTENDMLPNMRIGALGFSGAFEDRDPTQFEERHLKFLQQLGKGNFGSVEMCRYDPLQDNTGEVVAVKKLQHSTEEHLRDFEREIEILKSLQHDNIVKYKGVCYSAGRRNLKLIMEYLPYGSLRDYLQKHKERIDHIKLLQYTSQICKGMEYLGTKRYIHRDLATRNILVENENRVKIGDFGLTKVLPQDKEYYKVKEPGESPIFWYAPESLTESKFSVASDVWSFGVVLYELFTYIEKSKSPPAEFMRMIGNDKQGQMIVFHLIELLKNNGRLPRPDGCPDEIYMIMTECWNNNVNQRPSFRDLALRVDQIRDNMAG

For the molecule `CO[C@@]1(c2cc(C#N)cc(-c3cn([C@@H]4CC4(F)F)c4cnc(NC(C)=O)cc34)n2)CCOC1` [Example 2a.3, N-(3-(4-cyano-6-((R)-3-methoxytetrahydrofuran-3-yl)pyridin-2-yl)-1-((R)-2,2-difluorocyclopropyl)-1H-pyrrolo[2,3-c]pyridin-5-yl)acetamide], the “Tyk2 selectivity over Jak2” value in experiment [1] is listed as >197-fold. The “Tyk2 selectivity over Jak1” value in experiment [2] is on record as 440-fold.
The matching figures for `CC(=O)Nc1cc2c(-c3cc(C(F)F)cc([C@]4(CO)CCOC4)n3)cn(C)c2cn1` [Example 22.5, (S)-N-(3-(4-(difluoromethyl)-6-(3-(hydroxymethyl)tetrahydrofuran-3-yl)pyridin-2-yl)-1-methyl-1H-pyrrolo[2,3-c]pyridin-5-yl)acetamide]: >347-fold and 98-fold.
On to `CO[C@@]1(c2cc(OC[C@@H](C)O)cc(-c3cn(C)c4cnc(NC(C)=O)cc34)n2)CCOC1` [Example 14.6, N-(3-(4-((R)-2-hydroxypropoxy)-6-((R)-3-methoxytetrahydrofuran-3-yl)pyridin-2-yl)-1-methyl-1H-pyrrolo[2,3-c]pyridin-5-yl)acetamide], for which, in experiment [1], the “Tyk2 selectivity over Jak2” value is on record as >287-fold. Besides, the “Tyk2 selectivity over Jak1” value in experiment [2] is reported as 563-fold.
The matching figures for `CO[C@@]1(c2cncc(-c3cn(C)c4cnc(NC(N)=O)cc34)n2)CCOC1` [Example 12, (R)-1-(3-(6-(3-Methoxytetrahydrofuran-3-yl)pyrazin-2-yl)-1-methyl-1H-pyrrolo[2,3-c]pyridin-5-yl)urea]: >102-fold and 66-fold.
`COCc1cc(-c2cn(C)c3cnc(NC(C)=O)cc23)nc([C@@]2(CO)CCOC2)c1` [Example 22a, (R)-N-(3-(6-(3-(hydroxymethyl)tetrahydrofuran-3-yl)-4-(methoxymethyl)pyridin-2-yl)-1-methyl-1H-pyrrolo[2,3-c]pyridin-5-yl)acetamide]: in experiment [1], the “Tyk2 selectivity over Jak2” value is >21-fold.
For `CO[C@@]1(c2cc(O[C@H]3C[C@H](O)C3)cc(-c3cn(C)c4cnc(NC(C)=O)cc34)n2)CCOC1` [Example 11, N-(3-(4-((trans)-3-Hydroxycyclobutoxy)-6-((R)-3-methoxytetrahydrofuran-3-yl)pyridin-2-yl)-1-methyl-1H-pyrrolo[2,3-c]pyridin-5-yl)acetamide], the “Tyk2 selectivity over Jak2” value in experiment [1] was >481-fold. In addition, the “Tyk2 selectivity over Jak1” value in experiment [2] is on record as 442-fold.
Take `CO[C@@]1(c2cc(OCC[C@@H](C)O)cc(-c3cn(C)c4cnc(NC(C)=O)cc34)n2)CCOC1` [Example 7]: the “Tyk2 selectivity over Jak2” value in experiment [1] was >28-fold. In experiment [2], the “Tyk2 selectivity over Jak1” value was 39-fold.
In the case of `COCc1cc(-c2cn(C)c3cnc(NC(C)=O)cc23)nc([C@]2(OC)CCOC2)c1` [Example 2, (R)-N-(3-(4-(Methoxymethyl)-6-(3-methoxytetrahydrofuran-3-yl)pyridin-2-yl)-1-methyl-1H-pyrrolo[2,3-c]pyridin-5-yl)acetamide], the “Tyk2 selectivity over Jak2” value in experiment [1] was >198-fold. Besides, the “Tyk2 selectivity over Jak1” value in experiment [2] is listed as >317-fold.
For `CO[C@@]1(c2cccc(-c3cn([C@H]4C[C@H](C#N)C4)c4cnc(NC(C)=O)cc34)n2)CCOC1` [Example 17, N-(1-((trans)-3-Cyanocyclobutyl)-3-(6-((R)-3-methoxytetrahydrofuran-3-yl)pyridin-2-yl)-1H-pyrrolo[2,3-c]pyridin-5-yl)acetamide] the same measures were >806-fold and 871-fold.
Regarding `CO[C@@]1(c2cc(C#N)cc(-c3cn(C)c4cnc(NC(N)=O)cc34)n2)CCOC1` [Example 12.3, (R)-1-(3-(4-cyano-6-(3-methoxytetrahydrofuran-3-yl)pyridin-2-yl)-1-methyl-1H-pyrrolo[2,3-c]pyridin-5-yl)urea], the “Tyk2 selectivity over Jak2” value in experiment [1] is >266-fold. For the same molecule, the “Tyk2 selectivity over Jak1” value in experiment [2] is given as 138-fold.
Consider `COc1cc(-c2cn(C)c3cnc(NC(N)=O)cc23)nc([C@]2(OC)CCOC2)c1` [Example 12.6, (R)-1-(3-(4-methoxy-6-(3-methoxytetrahydrofuran-3-yl)pyridin-2-yl)-1-methyl-1H-pyrrolo[2,3-c]pyridin-5-yl)urea], for which, in experiment [1], the “Tyk2 selectivity over Jak2” value is >641-fold. For the same molecule, in experiment [2], the “Tyk2 selectivity over Jak1” value is 385-fold.
